The record followed here is US20240197772A1, “COMPOSITIONS COMPRISING ONE OR MORE HMO'S WITH A CORE OF LacNAc-Lac” (FrieslandCampina Nederland B.V., priority 2020, published 2024).

Assay [1] has as its system IL19. In words: PCR gene expression of IL19 in PBMCs incubated with single HMOs. In kind it is cell-based, human. Conditions: PBMCs of 3 donors, 0.5 mg/ml HMO, 5 h, average, control set as 1, GAPDH reference gene. How it is done: (§1) The effect of single HMOs on the expression of genes relevant to cholesterol metabolism and atherogenesis was tested using Peripheral Blood Mononuclear Cells (PBMCs) from 3 donors and incubated those cells with 0.5 g/l of single HMOs. The level of expression was determined using PCR.
(§2) Peripheral blood mononuclear cells (PBMC's) were isolated from a buffy coat using Sepmate tubes. The cells were diluted to a concentration of 1*10^7 cells per ml. The PBMC's were seeded in 6 wells plates and treated with 0.5 g/l of each HMO in PBMC culturing medium for 5 h prior to RNA isolation. Each HMO was mixed with 100 ug/ml final concentration of Polymyxin B to ensure neutralization of possible endotoxin contamination of HMOs, while equal amounts of Polymyxin B were used as a control.
(§3) 500 ng RNA, isolated from PBMCs, was translated into cDNA, using the quantitect reverse transcription kit (Qiagen). Primersets for the regulated genes (shown in the table below), were ordered at Qiagen (Quantitect primer assays). From each condition (PBMCs of 3 donors in control situation and after exposure towards HMOs (5 hrs)) cDNA (100×, 10× for genes which were low expressed) was amplified using the different primersets.
(§4) GAPDH (Glyceraldehyde-3-Phosphate Dehydrogenase) was used as a reference gene to quantify changes of gene expression between the control and the HMO-treated cells.
(§5) • GAPDH: Hs_GAPDH_vb.1_SG QuantiTect Primer Assay • IL19: Hs_IL19_1_SG QuantiTect Primer Assay • CD36: Hs_CD36_3_SG QuantiTect Primer Assay • GPR43/FFAR2: Hs_FFAR2_2_SG QuantiTect Primer Assay • ABCA1: Hs_ABCA1_1_SG QuantiTect Primer Assay
(§6) 19 commercially available HMO's that are present in human milk were tested. All gene expression values were calibrated to the Polymyxin B control of each respective donor (set arbitrary as 1). Average values for each gene compared to the Polymyxin B control are shown below (values above 1.5 fold or below 0.5 fold were considered physiologically relevant).

Assay [2] relates to CD36. Nature of the assay: PCR gene expression of CD36 in PBMCs incubated with single HMOs. In kind it is cell-based, human. Conditions: PBMCs of 3 donors, 0.5 mg/ml HMO, 5 h, average, control set as 1, GAPDH reference gene. The protocol: as §1, §2, §3, §4, §5, §6
The test system of assay [3] is GPR43/FFAR2. Nature of the assay: PCR gene expression of GPR43/FFAR2 in PBMCs incubated with single HMOs. Conditions: PBMCs of 3 donors, 0.5 mg/ml HMO, 5 h, average, control set as 1, GAPDH reference gene. It is filed as cell-based, human. How it is done:
as §1, §2, §3, §4, §5, §6

Assay [4] has as its system Primary human adipocytes. Nature of the assay: Adipocyte glucose uptake assay (3H-2-deoxyglucose). In kind it is cell-based. Conditions: 2 hours incubation; compared with vehicle control DMSO and insulin 100 nM positive control; LPS 2 ng/mL. From the text: • 1. Subcutaneous preadipocytes from Zen-Bio Inc were thawed and plated into appropriate experimental plate format. • 2. Upon thawing cells, culturing followed differentiation schedule below: • Day Treatment • 1 Plate cells in PM-1 • 2 Differentiate cells using DM-2 • 9 Feed cells Maintenance medium AM-1 • 16 Assay cells for lipid accumulation, lipolysis, glucose uptake or RNAseq. • 1. Primary human adipocytes were differentiated in 96-well isoplates • 2. At 14 days post differentiation, the cells were treated with glucose uptake starvation media (Zen-Bio Inc) overnight. • 3. The next morning, the cells were washed with assay buffer and the cells were treated with compounds in glucose assay buffer containing ^3H-2-deoxyglucose cocktail and the cells were incubated at 37° C., 5% CO2 and allowed to incubate for 2 hours. • 4. After 2 hours, the cells were washed with PBS, lysed, and mixed with Optiphase “Supermix” scintillation fluid (Zen-Bio Inc). The Counts Per Minute (CPM) of each well measured. • Vehicle control: DMSO (control) • Zen Bio Insulin positive control: 100 nM (insulin) • Control for possible endotoxin contamination of pHMOs: […]

Assay [5] deals with CD14+ CD36+ PBMC's. Nature of the assay: Cholesterol uptake (Dil oxLDL) by FACS in PBMCs. Conditions: 0.5 mg/ml, 4 hrs pre-incubation then 10 ug/ml Dil oxLDL 1 hour; gated on CD14+ CD36+ cells; FIG. 1. It is filed as cell-based. (In flow cytometry, cells or beads pass a laser one at a time.)
Assay [6] deals with ABCA1. In words: PCR gene expression of ABCA1 in PBMCs incubated with single HMOs. In kind it is cell-based, human. Conditions: PBMCs of 3 donors, 0.5 mg/ml HMO, 5 h, average, control set as 1, GAPDH reference gene. How it is done:
as §1, §2, §3, §4, §5, §6
2′FL was included too as it was expected that the most abundant HMO in human milk would show changes in any of these systems. […]

In the case of 3-Fucosyllactose [3FL], the “IL19 gene expression relative to Polymyxin B control” value in assay [1] is reported as 1.06 fold. Further, the “CD36 gene expression relative to Polymyxin B control” value in assay [2] is listed as 0.98 fold. Besides, the “FFAR2 gene expression relative to Polymyxin B control” value in assay [3] was 1.18 fold.

For the compound `CC(=O)N[C@H]1[C@H](O[C@H]2[C@@H](O)[C@@H](CO)O[C@@H](O[C@H]3[C@H](O)[C@@H](O)C(O)O[C@@H]3CO)[C@@H]2O)O[C@H](CO)[C@@H](O[C@@H]2O[C@H](CO)[C@H](O)[C@H](O)[C@H]2O)[C@@H]1O` (mixture of isomers) [LNnT, lacto-N-neotetraose], the “IL19 gene expression relative to Polymyxin B control” value in assay [1] was determined as 0.93 fold. Besides, the “CD36 gene expression relative to Polymyxin B control” value in assay [2] came out at 0.93 fold. The “FFAR2 gene expression relative to Polymyxin B control” value in assay [3] is given as 0.93 fold.

Turning to `C[C@@H]1O[C@@H](O[C@H]2[C@H](O[C@H]3[C@H](O)[C@@H](O)C(O)O[C@@H]3CO)O[C@H](CO)[C@H](O)[C@@H]2O)[C@@H](O)[C@H](O)[C@@H]1O` (stereo partly drawn) [2′FL, 2′-fucosyllactose], the “glucose uptake (CPM of 3H-2-deoxyglucose)” value in assay [4] is listed as “not significantly different from the vehicle control”. Moreover, in assay [5], the “cholesterol level in the cell, % of original value (MFI vs no glycan control with Dil oxLDL)” value is “about 91%”. The “CD36 gene expression relative to Polymyxin B control” value in assay [2] stood at 0.67 fold. Further, the “ABCA1 gene expression relative to Polymyxin B control” value in assay [6] is 1.09 fold. For the same compound, in assay [3], the “FFAR2 gene expression relative to Polymyxin B control” value was 0.72 fold.

For the compound `CC(=O)N[C@H]1[C@H]([C@H](O)[C@H](O)CO)O[C@@](O[C@H]2[C@@H](O)[C@@H](CO)O[C@@H](O[C@H]3[C@H](O[C@@H]4O[C@@H](C)[C@@H](O)[C@@H](O)[C@@H]4O)[C@@H](O)C(O)O[C@@H]3CO)[C@@H]2O)(C(=O)O)C[C@@H]1O` (stereo partly drawn) [3S3FL], the “IL19 gene expression relative to Polymyxin B control” value in assay [1] came to 0.94 fold. Further, the “CD36 gene expression relative to Polymyxin B control” value in assay [2] is reported as 0.90 fold. Further, in assay [3], the “FFAR2 gene expression relative to Polymyxin B control” value is recorded as 1.03 fold.

As for `CC(=O)N[C@H]1[C@H]([C@H](O)[C@H](O)CO)O[C@@](O[C@H]2[C@@H](O)[C@@H](CO)O[C@@H](O[C@H]3[C@H](O)[C@@H](O)C(O)O[C@@H]3CO)[C@@H]2O)(C(=O)O)C[C@@H]1O` (stereo partly drawn) [3′SL, 3′-Sialyllactose], the “IL19 gene expression relative to Polymyxin B control” value in assay [1] turned out to be 1.24 fold. In assay [2], the “CD36 gene expression relative to Polymyxin B control” value was determined as 0.87 fold. Besides, in assay [3], the “FFAR2 gene expression relative to Polymyxin B control” value is listed as 1.25 fold.

As for `CC(=O)N[C@H]1[C@H]([C@H](O)[C@H](O)CO)O[C@@](OC[C@H]2O[C@@H](O[C@H]3[C@H](O)[C@@H](O)[C@H](O)O[C@@H]3CO)[C@H](O)[C@@H](O)[C@H]2O)(C(=O)O)C[C@@H]1O` [6′SL, 6′-Sialyllactose], in assay [1], the “IL19 gene expression relative to Polymyxin B control” value turned out to be 1.05 fold. The “CD36 gene expression relative to Polymyxin B control” value in assay [2] was 0.93 fold. Besides, the “FFAR2 gene expression relative to Polymyxin B control” value in assay [3] is 1.83 fold.

Turning to `CC(=O)N[C@H]1[C@H](O[C@H]2[C@@H](O)[C@@H](CO)O[C@@H](O[C@@H]([C@H](O)[C@@H](O)C=O)[C@H](O)CO)[C@@H]2O)O[C@H](CO[C@]2(C(=O)O)C[C@H](O)[C@@H](NC(C)=O)[C@H]([C@H](O)[C@H](O)CO)O2)[C@@H](O)[C@@H]1O[C@@H]1O[C@H](CO)[C@H](O)[C@H](O[C@]2(C(=O)O)C[C@H](O)[C@@H](NC(C)=O)[C@H]([C@H](O)[C@H](O)CO)O2)[C@H]1O` [DSLNT, disialyllacto-N-tetraose], in assay [6], the “ABCA1 gene expression relative to Polymyxin B control” value was found to be 2.02 fold.

For the compound `C[C@@H]1O[C@@H](O[C@H]2[C@H](O[C@H]3[C@H](O[C@@H]4O[C@@H](C)[C@@H](O)[C@@H](O)[C@@H]4O)[C@@H](O)C(O)O[C@@H]3CO)O[C@H](CO)[C@H](O)[C@@H]2O)[C@@H](O)[C@H](O)[C@@H]1O` (stereo partly drawn) [LDFT], in assay [1], the “IL19 gene expression relative to Polymyxin B control” value is listed as 0.75 fold. The “CD36 gene expression relative to Polymyxin B control” value in assay [2] worked out at 1.00 fold. Also, the “FFAR2 gene expression relative to Polymyxin B control” value in assay [3] is reported as 1.64 fold.

Take `CC(=O)N[C@H]1[C@H](O[C@H]2[C@@H](O)[C@@H](CO)O[C@@H](O[C@H]3[C@H](O)[C@@H](O)C(O)O[C@@H]3CO)[C@@H]2O)O[C@H](CO)[C@@H](O)[C@@H]1O[C@@H]1O[C@H](CO)[C@H](O)[C@H](O)[C@H]1O` (stereo partly drawn) [LNT, lacto-N-tetraose]: the “IL19 gene expression relative to Polymyxin B control” value in assay [1] was 0.93 fold. Besides, the “CD36 gene expression relative to Polymyxin B control” value in assay [2] was found to be 0.93 fold. For the same compound, in assay [3], the “FFAR2 gene expression relative to Polymyxin B control” value was determined as 0.93 fold.

On to `CC(=O)N[C@H]1[C@H](O[C@H]2[C@@H](O)[C@@H](CO)O[C@@H](O[C@@H]([C@H](O)[C@@H](O)C=O)[C@H](O)CO)[C@@H]2O)O[C@H](CO[C@]2(C(=O)O)C[C@H](O)[C@@H](NC(C)=O)[C@H]([C@H](O)[C@H](O)CO)O2)[C@@H](O)[C@@H]1O[C@@H]1O[C@H](CO)[C@H](O)[C@H](O)[C@H]1O` [LSTb, sialyllacto-N-tetraose b], for which the “IL19 gene expression relative to Polymyxin B control” value in assay [1] was 1.31 fold. Moreover, in assay [2], the “CD36 gene expression relative to Polymyxin B control” value is recorded as 0.75 fold.

For the compound `CC(=O)N[C@H]1[C@H](O[C@H]2[C@@H](O)[C@@H](CO)O[C@@H](O[C@H]3[C@H](O)[C@@H](O)C(O)O[C@@H]3CO)[C@@H]2O)O[C@H](CO)[C@@H](O[C@@H]2O[C@H](CO[C@]3(C(=O)O)C[C@H](O)[C@@H](NC(C)=O)[C@H]([C@H](O)[C@H](O)CO)O3)[C@H](O)[C@H](O)[C@H]2O)[C@@H]1O` (stereo partly drawn) [LSTc], the “IL19 gene expression relative to Polymyxin B control” value in assay [1] turned out to be 1.25 fold. The “CD36 gene expression relative to Polymyxin B control” value in assay [2] was found to be 0.90 fold. For the same compound, the “FFAR2 gene expression relative to Polymyxin B control” value in assay [3] was determined as 1.02 fold.

Regarding LNFP-I, the “IL19 gene expression relative to Polymyxin B control” value in assay [1] came to 1.89 fold. For the same compound, the “CD36 gene expression relative to Polymyxin B control” value in assay [2] is 0.85 fold. Moreover, the “FFAR2 gene expression relative to Polymyxin B control” value in assay [3] is 0.86 fold.

For Lacto-N-fucopentaose III [LNFP-III], the figures for the “CD36 gene expression relative to Polymyxin B control” value in assay [2] and in assay [2] (listed as LNF-III) were 0.08 fold and “reduce”, respectively.

In the case of Lipopolysaccharide [LPS], the “glucose uptake (CPM of 3H-2-deoxyglucose)” value in assay [4] is “did not upregulate glucose uptake at all”.

On to lactodifucoheaxose II [LNDFH-II], for which, in assay [6], the “ABCA1 gene expression relative to Polymyxin B control” value was 2.16 fold.
